# Values quoted from earlier work as cited in patent US20220235393A1, “SURROGATE VIRUS ASSAYS AND METHODS” (priority 2019, published 2022).
# Tested on: ASFV
smiles,measurement,value
O=C(O)CC(O)(CC(=O)O)C(=O)O [citric acid],inactivation of virus applied to wood surfaces,completely inactivated
